In patent publication US20240408072A1, “COMPOSITION FOR PREVENTING OR TREATING GRAVES' DISEASE COMPRISING COMPOUND CONTAINING AN IMIDAZOPYRIDINE STRUCTURE AS ACTIVE INGREDIENT” (ESGELBIO INC., priority 2021, published 2024):
Entries after “also recorded” stand apart in the source; their conditions may differ. Read-outs that look alike come from different tables or passages of the source. Each block holds one molecule with its values, some of them ahead of it.

What was measured:
HL-60 MPO = HL-60 MPO (Homo sapiens (Human), UniProt P05164); assay: HL-60 MPO inhibition, drugs treated to media; type: cell-based
Chain of HL-60 MPO (P05164 49-745): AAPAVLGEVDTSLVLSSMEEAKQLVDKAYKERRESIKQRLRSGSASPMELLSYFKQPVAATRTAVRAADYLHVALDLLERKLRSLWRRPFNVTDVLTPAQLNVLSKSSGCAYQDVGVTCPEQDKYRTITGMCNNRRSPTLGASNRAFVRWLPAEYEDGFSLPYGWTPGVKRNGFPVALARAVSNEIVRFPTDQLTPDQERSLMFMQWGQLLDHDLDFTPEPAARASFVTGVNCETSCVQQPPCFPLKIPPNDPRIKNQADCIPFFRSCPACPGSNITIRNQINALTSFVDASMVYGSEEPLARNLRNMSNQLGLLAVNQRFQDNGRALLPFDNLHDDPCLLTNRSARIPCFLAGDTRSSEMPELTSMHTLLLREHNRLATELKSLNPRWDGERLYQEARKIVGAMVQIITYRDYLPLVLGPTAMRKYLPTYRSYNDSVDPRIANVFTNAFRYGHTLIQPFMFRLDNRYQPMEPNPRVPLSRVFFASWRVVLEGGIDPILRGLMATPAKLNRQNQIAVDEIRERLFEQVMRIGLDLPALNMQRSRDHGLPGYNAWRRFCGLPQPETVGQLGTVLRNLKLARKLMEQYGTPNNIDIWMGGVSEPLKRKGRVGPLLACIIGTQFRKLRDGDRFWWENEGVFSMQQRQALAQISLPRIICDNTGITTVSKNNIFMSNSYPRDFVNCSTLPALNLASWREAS
Experimental: The screening of compounds for MPO inhibition activity was conducted in three stages.

Human MPO = Human MPO (Homo sapiens (Human), UniProt P05164); assay: Myeloperoxidase (MPO) inhibition IC50 screening; type: biochemical
Chain of Human MPO (P05164 49-745): as above
Description: To discover new therapeutics for the treatment of Graves' disease, the inventors screened compounds for inhibition activity against myeloperoxidase (MPO). The screening process is schematically represented in FIG. 1. Use was made of approximately 7,000 compounds for the screening.

[1] = system: Graves' disease-induced mice; assay: Thyroid size in Graves' disease-induced (Ad-TSHR) mice; type: in vivo, BALB/c mice; conditions: 10 mg/kg daily for three weeks, abdominal cavity, vs Ad-TSHR group, FIG. 7
Experimental: (§1) To create a mouse model with induced Graves' disease, 6-week-old female BALB/c mice were used. The thyroid stimulating hormone receptor (TSHR) expressing adenovirus, Ad-TSHR, was purchased from VectorBuilder (Chicago, USA, www.vectorbuilder.com). […] The virus was injected three times at three-week intervals, totaling nine weeks of injections to induce overexpression of TSHR and thereby cause Graves' disease.
(§2) In the Graves' disease-induced mouse model established in <3-1>, the therapeutic effectiveness of the imidazopyridine scaffold-bearing compounds screened in the present disclosure was evaluated.
(§3) After extracting the thyroid glands from each mouse, the sizes of the thyroids were visually compared, and the concentration of thyroxine (T4) in the blood was analyzed.

[2] = system: TPO (thyroid peroxidase) expression; assay: Inhibition of TPO expression in SNU760 cells; type: cell-based; conditions: 50 uM, SNU760 Human Thyroid cell lines, FIG. 2
Experimental: (§4) To confirm whether the imidazopyridine scaffold-bearing compounds screened in Example 1 could be used as treatments for Graves' disease, SNU760 Human Thyroid cell lines were treated with various concentrations of each compound and then analyzed their ability to inhibit the expression of TPO (thyroid peroxidase) and TG (thyroglobulin).

[3] = system: TG (thyroglobulin) expression; assay: Inhibition of TG expression in SNU760 cells; type: cell-based; conditions: 50 uM, SNU760 Human Thyroid cell lines, FIG. 2
Experimental: as §4

[4] = system: Graves' disease-induced mice; assay: Serum thyroxine (T4) in Graves' disease-induced (Ad-TSHR) mice; type: in vivo, BALB/c mice; conditions: 10 mg/kg daily for three weeks, abdominal cavity, FIG. 8
Experimental: as §1, §2, §3
After administering drugs for three weeks to mice in which Graves' disease was induced by the Ad-TSHR virus over nine weeks, the serum was isolated to measure the concentration of thyroxine (T4).

thyroid peroxidase (TPO) = thyroid peroxidase (TPO) (Homo sapiens (Human), UniProt P07202); assay: Thyroid peroxidase (TPO) inhibition IC50; type: biochemical; conditions: Table 3
Chain of thyroid peroxidase (TPO) (P07202 19-933, species assumed): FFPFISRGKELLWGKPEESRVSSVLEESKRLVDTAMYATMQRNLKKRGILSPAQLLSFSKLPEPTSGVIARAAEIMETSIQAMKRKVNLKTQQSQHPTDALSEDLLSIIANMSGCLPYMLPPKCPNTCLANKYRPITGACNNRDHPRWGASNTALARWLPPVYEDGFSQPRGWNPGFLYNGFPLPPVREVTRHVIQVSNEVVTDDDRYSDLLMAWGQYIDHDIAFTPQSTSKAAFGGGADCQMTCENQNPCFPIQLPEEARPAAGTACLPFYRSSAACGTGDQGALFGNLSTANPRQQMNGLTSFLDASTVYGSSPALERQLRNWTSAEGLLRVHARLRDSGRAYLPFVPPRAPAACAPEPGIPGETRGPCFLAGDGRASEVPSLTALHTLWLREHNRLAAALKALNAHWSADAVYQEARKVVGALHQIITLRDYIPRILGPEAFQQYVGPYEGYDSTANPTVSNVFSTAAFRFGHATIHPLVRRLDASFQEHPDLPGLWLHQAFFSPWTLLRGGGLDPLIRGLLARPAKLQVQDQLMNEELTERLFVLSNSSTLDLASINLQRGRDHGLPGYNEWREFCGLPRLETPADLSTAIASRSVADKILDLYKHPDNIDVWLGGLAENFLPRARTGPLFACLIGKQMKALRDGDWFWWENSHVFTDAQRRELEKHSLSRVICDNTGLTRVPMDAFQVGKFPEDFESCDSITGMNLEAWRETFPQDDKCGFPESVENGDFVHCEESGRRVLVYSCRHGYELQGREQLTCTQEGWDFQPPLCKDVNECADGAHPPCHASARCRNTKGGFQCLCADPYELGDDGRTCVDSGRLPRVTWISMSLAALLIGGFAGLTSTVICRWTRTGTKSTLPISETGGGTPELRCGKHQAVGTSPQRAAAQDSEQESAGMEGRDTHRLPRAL

HL-60 MPO Inhibition (%) (treat to media) (HL-60 MPO; 2nd Screening): 0% | inhibition at 25 µM (HL-60 MPO; HL-60, 3rd Screening, 25 uM, read-out: HL-60 MPO Inhibition (%) (25 uM of Drugs are treated to media)): 0% | IC50 (Human MPO; Chemical Library 2nd Screening, MPO, read-out: IC50): 0.021 µM | IC50 (Human MPO; Chemical Library 3rd Screening, read-out: IC50 (uM) (Human MPO)): 0.021 µM
Structure (SMILES): CC(C)OCCn1c(=S)[nH]c(=O)c2[nH]ccc21 [AZD3241]

Structure (SMILES): Cc1ccc2nc(-c3cccnc3)c(Nc3ccc4c(c3)OCO4)n2c1 [NE-2-6, N-(2H-1,3-BENZODIOXOL-5-YL)-6-METHYL-2-(PYRIDIN-3-YL) IMIDAZO [1,2-A]PYRIDIN-3-AMINE]
thyroid size (visually compared) [1]: effectively reduced thyroid sizes; also recorded: nearly restored to normal levels | inhibition of the expression of TPO [2]: ~100% | inhibition of the expression of TG [3]: ~100% | serum thyroxine (T4) concentration [4]: significant reduction; also recorded: more effective

IC50 (thyroid peroxidase (TPO)): 0.02 µM
Structure (SMILES): COc1ccc(-c2nc3cc(C)ccn3c2Nc2ccc3c(c2)OCO3)cc1 [NE-2-7, N-(2H-1,3-BENZODIOXOL-5- YL)-2-(4-METHOXYPHENYL)-7- METHYLIMIDAZO[1,2- A]PYRIDIN-3-AMINE]
